Reference: US7504382B2 (priority 2003, dated 2009)
≈ marks a conversion by molar mass, not a printed value. Square brackets hold non-standard residues; d marks the D form. Peptide text beside a SMILES is read from it. * marks the point of attachment. ξ: configuration not given here. ξE = NC(CCC(=O)O)C(=O)O; Cbz = O=C(OCc1ccccc1)*; CH2F = FC*

How the values were obtained:
[1] = system: SARS-CoV infected Vero 76 cells; assay type: cell-based; details: for EC50 (protection from virus-induced cell death): SARS-CoV infected Vero 76 cells, 72 h, neutral red; for SI value: from TC50 and EC50, indication of potential therapeutical index
[2] = system: SARS-CoV infected Vero-cells; assay type: cell-based; details: concentration of 1 μM

Row | SMILES | EC50 (protection from virus-induced cell death) [1] [µg/mL] | SI value [1] | inhibition of the cytopathic effect (CPE) of SARS-CoV [2] [%] | TC50 (toxicity of the compound) (uninfected Vero 76 cells) [µg/mL] | toxicity at the same concentration (Vero-cells)
1 | CC(C)[C@H](NC(=O)OCc1ccccc1)C(=O)NC(CCC(=O)N(C)C)C(=O)CF (stereo partly drawn) [Example 24, 4-(Cbz-Val-Amido)-6-Fluoro-5-Oxo-Hexanoic Acid Dimethylamide] (Cbz-Val-[ξE](NMe2)-CH2F) | 0.02 (≈ 0.0472 µM) | > 500 | 100 | > 10 | no toxicity was observed
2 | CNC(=O)CCC(NC(=O)[C@H](CC(C)C)NC(=O)OCc1ccccc1)C(=O)CF (stereo partly drawn) [Example 12, 4-(Cbz-Leu-Amido)-6-Fluoro-5-Oxo-Hexanoic Acid Methylamide] (Cbz-Leu-[ξE](NHMe)-CH2F) |  |  | 100 |  | no toxicity was observed
3 | CC(C)[C@H](NC(=O)OCc1ccccc1)C(=O)NC(CC(=O)N(C)C)C(=O)CF (stereo partly drawn) [Example 17, 3-(Cbz-Val-Amido)-5-Fluoro-4-Oxo-Pentanoic Acid Dimethylamide] | 2.1 (≈ 5.13 µM) | > 24 |  | > 50 | 
4 | CC(C)CC(NC(=O)C(NC(=O)OCc1ccccc1)C(C)C)C(=O)NC(CCC(=O)N(C)C)C(=O)CF (stereo not drawn) [Example 7, 4-(Cbz-Val-Leu-Amido)-6-Fluoro-5-Oxo-Hexanoic Acid Dimethylamide] (Cbz-Val-Leu-Glu(NMe2)-CH2F; configuration not given here) |  |  | 94.5 |  | no toxicity was observed
